The record followed here is BindingDB's records for doi:10.1021/jm00395a016 (Medical Research Division of American Cyanamid, 1988).

The assay has as its target Thromboxane-A synthase (Rattus norvegicus). Description: Tested for inhibition of thromboxane Synthetase from spontaneously hypertensive rats.

Regarding `CC(Cn1ccnc1)Cn1c(=O)[nH]c2cc(Cl)ccc2c1=O` (stereo unspecified), the IC50 stood at 10 nM.
